Test system: adult cat fleas
Assay: Residual flea efficacy trials on infested cats (Studies A-D)
Type: in vivo
Details: cleansing system 40 mg/kg vs topical at average 225 mg/kg
Description: The efficacy trials were performed using protocols that required the experimental group of infested cats to be compared with an untreated group of similarly infested animals.
The cleansing emulsion system formulation, containing 0.5% etofenprox was applied to the wet animals at the rate of 8 grams of cleansing system per kg of animal body weight. The 40% etofenprox topical was applied at the rate of 1 ml per cat for weights up to 5 lbs. (2.2 kg) and 2 ml per cat for those weighing greater than 5 lbs. (2.2 kg). The average rate of etofenprox applied to the cleansing system treated cats was 40 mg etofenprox per kg of body weight. The average rate of etofenprox applied to the topical treated cats was 225 mg per kg of body weight.
All test animals were infested with 100 unfed adult cat fleas prior to treatment. The cats were examined for the presence of live fleas at 24 to 48 hours after treatment. Residual data points were accomplished by infesting the treated animals at 14, 21 and 28 days after treatment. The animals were then examined for the presence of live fleas 48 hours after each infestation.

CCOc1ccc(C(C)(C)COCc2cccc(Oc3ccccc3)c2)cc1 [Etofenprox]
residual adult flea kill / residual efficacy compared with topical: residual efficacy results similar to 225 mg/kg BW rates required for topical formulations

Source: patent publication US9149416B1, “High deposition cleansing system” (WELLMARK INTERNATIONAL, priority 2008, dated 2015)
